One series has as its system J774.A1. As to the kind of experiment: Cytotoxicity against mouse J774.A1 cells measured after 24 hrs by resazurin based assay. Format: cell-based. Particulars: J774.A1, 24 h.
Series [1] is described as follows: Selectivity index, ratio of IC50 for mouse J774.A1 cells to MIC for Mycobacterium tuberculosis INH R2. Format: toxicity. Particulars: read-out: Selectivity Index.
Series [2] in a line: Selectivity index, ratio of IC50 for mouse J774.A1 cells to MIC for Mycobacterium tuberculosis INH R1 ATCC 35822. Format: toxicity. Conditions: read-out: Selectivity Index.
The nature of series [3]: Selectivity index, ratio of IC50 for mouse J774.A1 cells to MIC for Mycobacterium tuberculosis H37Rv. It counts as toxicity. Particulars: read-out: Selectivity Index.

In brackets after ≈: the same amount, converted by molar mass. A value given as a limit tells only on which side of the number the result lay.

A word on the IC50: it is the concentration needed to halve the response being measured. A higher IC50 goes with weaker potency in that assay. In the series with J774.A1, `CC1(C)OC2=C(CC1Br)C(=O)C(=O)c1ccccc12` (stereo not given) registered an IC50 of 1.93 µg/mL (≈ 6.01 µM). Also, the selectivity ratio was determined as 0.6 in series [1], 0.3 in series [2] and 0.3 in series [3].

Regarding `CC1(C)OC2=C(C(=O)C(=O)c3ccccc32)C1Nc1ccccc1` (stereo not given), half-maximal inhibition with J774.A1 (IC50) required 1.82 µg/mL (≈ 5.7 µM). The selectivity ratio in series [1] is 0.3; in series [2], 0.6; in series [3] it was 0.6.

In the series on J774.A1, `O=C1C(=O)c2ccccc2C2=C1CC(Cn1cc(-c3ccccc3)nn1)O2` (stereo not given) gave an IC50 of 2.94 µg/mL (≈ 8.23 µM). For the same molecule, the selectivity ratio in series [1] was found to be 0.1; in series [2] it was 0.1; in series [3], 0.2.

Consider `CC1CC2=C(O1)c1ccccc1/C(=N/NC(=O)c1ccncc1)C2=O` (stereo not given), for which the IC50 in the series on J774.A1 was above 200 µg/mL. The selectivity ratio is above 8 in series [1], above 16 in series [2] and above 16 in series [3].

Regarding `CC1(C)OC2=C(CC1I)C(=O)C(=O)c1ccccc12` (stereo not given), in the series on J774.A1, the IC50 came out at 3.2 µg/mL (≈ 8.69 µM). In addition, the selectivity ratio was found to be 0.5 in series [1], 1 in series [2] and 1 in series [3].

`CC1(C)OC2=C(C(=O)/C(=N\NC(=O)c3ccncc3)c3ccccc32)[C@H](n2cc(-c3ccccc3)nn2)[C@H]1Br` had a 50% inhibitory concentration (IC50) in the series on J774.A1 of 175 µg/mL (≈ 300 µM). For the same molecule, the selectivity ratio was below 0.9 in series [1], 0.9 in series [2] and 0.9 in series [3].

In turn, `CC1(C)CC2=C(O1)c1ccccc1/C(=N/NC(=O)c1ccncc1)C2=O` had an IC50 with J774.A1 above 200 µg/mL. For the same molecule, the selectivity ratio in series [1] is above 32; in series [2] it was above 4; in series [3], above 250.

For the molecule `CC1(C)OC2=C(CC1Br)C(=O)/C(=N\NC(=O)c1ccncc1)c1ccccc12` (stereo not given), the IC50 in the series on J774.A1 is above 200 µg/mL. In addition, the selectivity ratio in series [1], in series [2] and in series [3] was above 16 each time.

On to `CC1(C)OC2=C(C(=O)/C(=N\NC(=O)c3ccncc3)c3ccccc32)C1n1cc(-c2ccccc2)nn1` (stereo not given), for which the midpoint of inhibition in the series with J774.A1, the IC50, lay at 101 µg/mL (≈ 207 µM). Also, the selectivity ratio in series [1], in series [2] and in series [3] was 8.1 each time.

As to `CC1(C)OC2=C(C(=O)C(=O)c3ccccc32)C1n1cc(-c2ccccc2)nn1` (stereo not given), in the series with J774.A1, the IC50 came to 2.11 µg/mL (≈ 5.68 µM). For the same molecule, the selectivity ratio in series [1] came out at 0.1; in series [2], 0.1; in series [3] it was 0.3.

Regarding `O=C1C2=C(OC(Cn3cc(-c4ccccc4)nn3)C2)c2ccccc2/C1=N/NC(=O)c1ccncc1` (stereo not given), the IC50 with J774.A1 amounted to 18.4 µg/mL (≈ 38.6 µM). For the same molecule, the selectivity ratio is 0.4 in series [1], 0.4 in series [2] and 1.5 in series [3].

In turn, `CC1(C)OC2=C(C(=O)/C(=N\NC(=O)c3ccncc3)c3ccccc32)C1Nc1ccccc1` (stereo not given) showed an IC50 in the series with J774.A1 of 74.2 µg/mL (≈ 169 µM). Further, the selectivity ratio in series [1] was 3; in series [2], 0.7; in series [3], 3.

Turning to `CC1(C)OC2=C(C(=O)/C(=N\NC(=O)c3ccncc3)c3ccccc32)C1O` (stereo not given), the IC50 in the series with J774.A1 was above 200 µg/mL. The selectivity ratio in series [1] was above 2; in series [2], above 1; in series [3], above 32.

For `CC1(C)CC2=C(O1)/C(=N\NC(=O)c1ccncc1)c1ccccc1C2=O`, in the series with J774.A1, inhibition was half-maximal at 17 µg/mL (≈ 48.9 µM) (IC50). Further, the selectivity ratio stood at 0.1 in series [1], 0.2 in series [2] and 0.7 in series [3].

As for `CC1(C)CCC2=C(O1)c1ccccc1/C(=N/NC(=O)c1ccncc1)C2=O`, the IC50 in the series on J774.A1 was above 200 µg/mL. For the same molecule, the selectivity ratio is above 32 in series [1], above 4 in series [2] and above 250 in series [3].

Regarding `CC1(C)OC2=C(CC1I)C(=O)/C(=N\NC(=O)c1ccncc1)c1ccccc12` (stereo not given), 30.8 µg/mL (≈ 63.1 µM) corresponded to half-maximal inhibition in the series with J774.A1 (IC50). The selectivity ratio in series [1], in series [2] and in series [3] was 0.3 throughout.

`CC1(C)OC2=C(C(=O)C(=O)c3ccccc32)C1O` (stereo not given) had an IC50 in the series on J774.A1 of 3.67 µg/mL (≈ 15 µM). The selectivity ratio in series [1] was 0.1; in series [2], 0.1; in series [3] it was 0.3.

Turning to `CC1(C)CC2=C(O1)C(=O)c1ccccc1C2=O`, the IC50 in the series with J774.A1 came to 18.6 µg/mL (≈ 81.6 µM). Also, the selectivity ratio in series [1] amounted to 0.7; in series [2] it was 0.7; in series [3], 1.5.

`CC1(C)OC2=C(C(=O)C(=O)c3ccccc32)[C@H](n2cc(-c3ccccc3)nn2)[C@H]1Br` (racemic) displayed an IC50 in the series with J774.A1 of 1.47 µg/mL (≈ 3.17 µM). Besides, the results for the selectivity ratio in series [1], in series [2] and in series [3] were 0.1, 0.2 and 0.9, respectively.

As to `CC1(C)CCC2=C(O1)C(=O)c1ccccc1C2=O` [ALPHA-LAPACHONE], the IC50 with J774.A1 was determined as 285 µg/mL (≈ 1180 µM).

In the series with J774.A1, `CC1(C)CCC2=C(O1)c1ccccc1C(=O)C2=O` [LAPACHONE] showed an IC50 above 200 µg/mL. For the same molecule, the selectivity ratio in series [1] is above 32; in series [2] it was above 64; in series [3], above 32.

`CC1(C)CC2=C(O1)c1ccccc1C(=O)C2=O` [NOR-BETA-LAPACHONE] had a 50% inhibitory concentration (IC50) with J774.A1 of 3.69 µg/mL (≈ 16.2 µM). Also, the values for the selectivity ratio in series [1], in series [2] and in series [3] were 0.6, 0.3 and 1.2, respectively.

The values above are taken from ChEMBL document CHEMBL4393738, “Design of hybrid molecules as antimycobacterial compounds: Synthesis of isoniazid-naphthoquinone derivatives and their activity against susceptible and resistant strains of Mycobacterium tuberculosis” (Bioorg Med Chem, 2019).
